Patent publication US8952014B2, “Pyrimidine derivatives which are CGRP—antagonists” (Boehringer Ingelheim International GmbH, priority 2008, dated 2015)

These compounds were tested against T1, human CGRP receptor (Homo sapiens, UniProt O60894+Q16602) (assay: Binding studies with SK-N-MC cells (125I-CGRP displacement from membranes)). Settings: 50 pM 125I-iodotyrosyl-CGRP, 180 min, ambient temperature.
T1 construct: SK-N-MC membranes (˜20 μg protein) are incubated for 180 minutes at ambient temperature; endogenous in cells; host or cells: SK-N-MC cells (membranes)
Description: A. Binding Studies with SK-N-MC Cells (Expressing the Human CGRP Receptor)
SK-N-MC membranes (˜20 μg protein) are incubated for 180 minutes at ambient temperature with 50 pM ^125I-iodotyrosyl-Calcitonin-Gene-Related Peptide and increasing concentrations of the test substances in a total volume of 250 μl (assay buffer: 10 mM tris, 50 mM NaCl, 5 mM MgCl2, 1 mM EDTA, pH=7.4). The incubation is ended by rapid filtration through GF/B-glass fibre filters treated with polyethyleneimine (0.1%) using a cell harvester. The protein-bound radioactivity is measured using a gamma counter. Non-specific binding is defined as the bound radioactivity after the presence of 1 μM BIBN4096BS during incubation.
The concentration binding curves are analysed using computer-aided non-linear curve fitting.

T1 sequence (Q16602 23-461): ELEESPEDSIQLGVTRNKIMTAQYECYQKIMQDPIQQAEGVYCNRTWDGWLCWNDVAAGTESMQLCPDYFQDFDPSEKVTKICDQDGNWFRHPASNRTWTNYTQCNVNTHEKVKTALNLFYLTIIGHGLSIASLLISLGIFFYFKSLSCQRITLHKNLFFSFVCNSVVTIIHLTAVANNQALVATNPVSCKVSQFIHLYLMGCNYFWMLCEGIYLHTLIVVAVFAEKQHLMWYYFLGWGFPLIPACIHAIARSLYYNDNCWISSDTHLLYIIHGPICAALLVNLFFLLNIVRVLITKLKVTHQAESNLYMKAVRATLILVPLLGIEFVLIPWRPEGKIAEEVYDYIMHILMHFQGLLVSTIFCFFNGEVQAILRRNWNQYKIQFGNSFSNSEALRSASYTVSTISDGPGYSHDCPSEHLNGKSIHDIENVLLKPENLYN
T1 sequence (O60894 27-148): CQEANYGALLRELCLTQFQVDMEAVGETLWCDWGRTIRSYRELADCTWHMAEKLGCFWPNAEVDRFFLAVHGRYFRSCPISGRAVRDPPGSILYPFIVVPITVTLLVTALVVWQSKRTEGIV

SMILES	Ki [nM]
COc1ccc2c(c1)CCN(C1CCN(c3cc(Oc4cc(C)c5nc[nH]c5c4)ncn3)CC1)C(=O)N2 [(32)]	15
COc1ccc2c(c1)CCN(C1CCN(c3cc(Oc4cc(C)c5nc(CC6CC6)[nH]c5c4)ncn3)CC1)C(=O)N2 [(33)]	8
Cc1nc2c(C)cc(Oc3cc(N4CCC(n5c(=O)[nH]c6ncccc65)CC4)ncn3)cc2[nH]1 [(34)]	18
COc1ccc2c(c1)CCN(C1CCN(c3cc(Oc4cc(C)c5nc(CC(F)(F)F)[nH]c5c4)ncn3)CC1)C(=O)N2 [(35)]	16
COc1ccc2c(c1)CCN(C1CCN(c3cc(Oc4cc(C)nc(C)c4)ncn3)CC1)C(=O)N2 [(36)]	61
COc1ccc2c(c1)CCN(C1CCN(c3cc(Oc4cc(C)c5[nH]c(=O)oc5c4)nc(N)n3)CC1)C(=O)N2 [(37)]	65
COCc1nc2c(C)cc(Oc3cc(N4CCC(N5CCc6cc(OC)ccc6NC5=O)CC4)ncn3)cc2[nH]1 [(38)]	10
COCc1nc2cc(Oc3cc(N4CCC5(CC4)OC(=O)Nc4ncccc45)ncn3)cc(C)c2[nH]1 [(39)]	7
COc1ccc2c(c1)CCN(C1CCN(c3cc(Oc4cc(C)c5[nH]c(=O)oc5c4)nc(OC)n3)CC1)C(=O)N2 [(40)]	8
COc1nc(Oc2cc(C)c3[nH]c(=O)oc3c2)cc(N2CCC3(CC2)OC(=O)Nc2ncccc23)n1 [(41)]	3
COc1ccc2c(c1)CCN(C1CCN(c3cc(Oc4cc(C)c5nc(C6CC6)[nH]c5c4)ncn3)CC1)C(=O)N2 [(42)]	2
Cc1cc(Oc2cc(N3CCC(n4c(=O)[nH]c5ncccc54)CC3)ncn2)cc2[nH]c(C3CC3)nc12 [(43)]	6
Cc1cc(Oc2cc(N3CCC4(CC3)OC(=O)Nc3ncccc34)ncn2)cc2[nH]c(C3CC3)nc12 [(44)]	1
COc1ccc2c(c1)CCN(C1CCN(c3cc(Oc4cc(C)c5[nH]c(=O)oc5c4)nc(C4CC4)n3)CC1)C(=O)N2 [(45)]	81
COc1ccc2c(c1)CCN(C1CCN(c3nc(Cl)cc(Oc4cc(C)c5[nH]c(=O)oc5c4)n3)CC1)C(=O)N2 [(46)]	194
COc1ccc2c(c1)CCN(C1CCN(c3cc(Oc4ccc5[nH]c(=O)oc5c4)ncn3)CC1)C(=O)N2 [(47)]	47
COc1ccc2c(c1)CCN(C1CCN(c3cc(Oc4ccc(NC(C)=O)c(C)c4)ncn3)CC1)C(=O)N2 [(48)]	96
COc1ccc2c(c1)CCN(C1CCN(c3cc(Oc4ccc(N)c(C)c4)ncn3)CC1)C(=O)N2 [(49)]	154
Cc1nc2cc(Oc3cc(N4CCC5(CC4)OC(=O)Nc4ncccc45)ncn3)cc(Cl)c2[nH]1 [(51)]	3
Cc1cc(Oc2cc(N3CCC(n4c(=O)[nH]c5ncccc54)CC3)ncn2)cc2[nH]c([C@@H]3CCCO3)nc12 [(52)]	27
COc1ccc2c(c1)CCN(C1CCN(c3cc(Oc4cc(C)c5nc([C@@H]6CCCO6)[nH]c5c4)ncn3)CC1)C(=O)N2 [(53)]	5
Cc1cc(Oc2cc(N3CCC4(CC3)OC(=O)Nc3ncccc34)ncn2)cc2[nH]c([C@@H]3CCCO3)nc12 [(54)]	2
COc1ccc2c(c1)CCN(C1CCN(c3cc(Oc4ccc5[nH]c(C)nc5c4)ncn3)CC1)C(=O)N2 [(55)]	89
COc1ccc2c(c1)CCN(C1CCN(c3cc(Oc4ccc5[nH]c(C)nc5c4Cl)ncn3)CC1)C(=O)N2 [(56)]	29

SMILES	Ki [nM]
COc1ccc2c(c1)CCN(C1CCN(c3cc(Oc4cc(C)c5c(c4)OCC(=O)N5)ncn3)CC1)C(=O)N2 [(57)]	35
Cc1cc(Oc2cc(N3CCC4(CC3)OC(=O)Nc3ncccc34)ncn2)cc2nc(C3CCOC3)[nH]c12 (centres unmarked) [(58)]	2
Cc1cc(Oc2cc(N3CCC4(CC3)OC(=O)Nc3ncccc34)ncn2)cc2nc([C@@H]3CCOC3)[nH]c12 [(59)]	2
Cc1cc(Oc2cc(N3CCC4(CC3)OC(=O)Nc3ncccc34)ncn2)cc2nc([C@H]3CCOC3)[nH]c12 [(60)]	2
O=C1Nc2ncccc2C2(CCN(c3cc(Oc4cc(Cl)c5[nH]c(C6CCOC6)nc5c4)ncn3)CC2)O1 (centres unmarked) [(61)]	2
O=C1Nc2ncccc2C2(CCN(c3cc(Oc4cc(Cl)c5[nH]c(C6CCOCC6)nc5c4)ncn3)CC2)O1 [(62)]	2
Cc1cc(Oc2cc(N3CCC4(CC3)OC(=O)Nc3ncccc34)ncn2)cc2nc(C(F)(F)F)[nH]c12 [(63)]	2
Cc1cc(Oc2cc(N3CCC4(CC3)OC(=O)Nc3ncccc34)ncn2)cc2sc(=O)[nH]c12 [(64)]	2
Cc1cc(Oc2cc(N3CCC4(CC3)OC(=O)Nc3ncccc34)ncn2)cc2nc(C3CCOCC3)[nH]c12 [(65)]	3
COCCc1nc2c(C)cc(Oc3cc(N4CCC5(CC4)OC(=O)Nc4ncccc45)ncn3)cc2[nH]1 [(66)]	6
COc1nc2cc(Oc3cc(N4CCC5(CC4)OC(=O)Nc4ncccc45)ncn3)cc(C)c2[nH]1 [(67)]	6
Cc1cc(Oc2cc(N3CCC4(CC3)OC(=O)Nc3ncccc34)ncn2)cc2cn[nH]c12 [(68)]	4
Cc1cc(Oc2cc(N3CCC4(CC3)OC(=O)Nc3ncccc34)ncn2)cc2c1NC(=O)CO2 [(69)]	4
Cc1cc(Oc2cc(N3CCC4(CC3)OC(=O)Nc3ncccc34)ncn2)cc2[nH]c([C@H]3CCCO3)nc12 [(70)]	5
Cc1nc(Oc2cc(C)c3[nH]c(=O)oc3c2)cc(N2CCC3(CC2)OC(=O)Nc2ncccc23)n1 [(71)]	8
COc1ccc2c(c1)CCN(C1CCN(c3cc(Oc4cc(C)c5[nH]c(=O)sc5c4)ncn3)CC1)C(=O)N2 [(72)]	3
COc1ccc2c(c1)CCN(C1CCN(c3cc(Oc4cc(C)c5nc(C6CCOC6)[nH]c5c4)ncn3)CC1)C(=O)N2 (centres unmarked) [(73)]	3
Cc1cc(Oc2cc(N3CCC4(CC3)OC(=O)Nc3ncccc34)nc(C(F)(F)F)n2)cc2oc(=O)[nH]c12 [(74)]	29
Cc1cc(Oc2cc(N3CCC4(CC3)OC(=O)Nc3ncccc34)ncc2C#N)cc2oc(=O)[nH]c12 [(75)]	23
Cc1nc(Oc2cc(C)c3[nH]c(=O)oc3c2)cc(N2CCC3(CC2)CC(=O)Nc2ncccc23)n1 [(76)]	26
Cc1nc(Oc2cc(C)c3[nH]c(=O)oc3c2)cc(N2CCC3(CC2)C(=O)Nc2ncccc23)n1 [(77)]	21
COc1ccc2c(c1)CCN(C1CCN(c3cc(Oc4cc(C(F)(F)F)c5nc(C)[nH]c5c4)ncn3)CC1)C(=O)N2 [(79)]	11
COc1ccc2c(c1)CCN(C1CCN(c3cc(Oc4cc(C)c5[nH]c(=O)oc5c4)cc[n+]3[O-])CC1)C(=O)N2 [(80)]	11
